Bridge positions count the residues as written; N and C are the ends. Peptide text beside a SMILES is read from it.
Tests used:
Type in all cases: cell-based
[1] = target: T1, Kv1.1/1.3 S5-S6 chimeric channel (Homo sapiens, UniProt Q09470, A352P/E350D/E351D/E353T/H355G/S369T/Y379H); assay: Whole-cell patch clamp, chimeric channel; details: +30 mV, mean ± SD
T1 construct: expressed in transfected cells; host or cells: CHO-K1
Source text: (§1) To investigate the structural determinants underlying the differential regulatory effects of MrVIII on Kv1 channels, we employed a chimeric channel strategy. Using Kv1.3 as the template, the S1-S2, S3-S4, and S5-S6 transmembrane helices and their respective linkers from Kv1.1 were inserted to generate chimeras, generating the Kv1.3/1.1 S1-S2, Kv1.3/1.1 S3-S4, and Kv1.3/1.1 S5-S6 chimeric channels. […] These findings indicate that the S3-S4 is the key determinant for the differential inhibition of Kv1.1 and Kv1.3 by MrVIII. To further validate this conclusion, we constructed a reverse chimeric channel using Kv1.1 as the template, inserting the corresponding regions from Kv1.3 into Kv1.1. […] This finding more directly illustrates the exchange of the channel's voltage-dependence phenotype in toxin inhibition by swapping this S3-S4 between Kv1.1 and Kv1.3. […] In addition to confirming the differential role of S3-S4 between Kv1.1 and Kv1.3, we also substituted the S3-S4 of Kv1.4 and Kv1.7 into Kv1.3 to analyze MrVIII's inhibition profile. […] The IC50 for Kv1.3/1.7 S3-S4 could not be fitted, and inhi%(495 ms) was only 23.1 ± 10.0% (Fig. S2, E and F). […]
(§2) CHO-K1 cells were selected for expressing Kv channels due to their lack of endogenous Kv channels, while HEK293 or ND7/23 cells were used for Nav and Cav channel expression. […] After 4 to 6 h transfection, cells were seeded onto poly-lysine–coated coverslips, and 24 to 36 h later, transfected cells were ready for patch-clamp analysis. […]
(§3) For Kv current recordings, the bath solution contained (in mM) the following: 140 NaCl, 5 KCl, 1 MgCl2, 2 CaCl2, 10 glucose, and 10 Hepes (pH 7.3, adjusted with NaOH), and the pipette solution contained (in mM) the following: 140 KCl, 2.5 MgCl2, 11 EGTA, and 10 Hepes (pH 7.3, adjusted with KOH). […] Whole cell conductance (G) at each depolarizing voltage (V) was determined using the equation: G = I/(V−Vrev), where I is the current amplitude, and Vrev is the reversal potential. […]

[2] = target: T2, Kv1.3/1.1 S5-S6 chimeric channel (Homo sapiens, UniProt P22001, D422E/D423E/G427H/H451Y/P424A/T425E/T441S); assay: Whole-cell patch clamp, chimeric channel; details: +30 mV, 500 ms, holding −80 mV, mean ± SD, n = 4-5, read-out: IC50, Kv1.3/1.1 S5-S6 current
T2 construct: expressed in transfected cells; host or cells: CHO-K1
Source text: as §1, §2, §3

[3] = target: T3, Kv1.1/QM (Kv1.1/E283Q_T286M) (Homo sapiens, UniProt Q09470, E283Q/T286M); assay: Whole-cell patch clamp, Kv1.1 double mutant; details: +30 mV, mean ± SD, n = 3–5, read-out: IC50, Kv1.1/QM current (full inhibition)
T3 construct: expressed in transfected cells; host or cells: CHO-K1
Source text: In contrast, differences at positions 347, 355, and 358 between Kv1.3 and Kv1.1 prompted further analysis. To explore whether these discrepancies influence peptide-mediated inhibition, we substituted these residues in Kv1.3 with their homologous counterparts in Kv1.1 and assessed the MrVIII's inhibitory efficacy on these single-point mutants. […] To further investigate this, we introduced double adjacent mutations around Q355 and M358 in Kv1.3 to explore potential synergistic effects on MrVIII's inhibitory activity. […]
as §2, §3

T1 sequence (Q09470 whole entry E350D/E351D/A352P/E353T/H355G/S369T/Y379H): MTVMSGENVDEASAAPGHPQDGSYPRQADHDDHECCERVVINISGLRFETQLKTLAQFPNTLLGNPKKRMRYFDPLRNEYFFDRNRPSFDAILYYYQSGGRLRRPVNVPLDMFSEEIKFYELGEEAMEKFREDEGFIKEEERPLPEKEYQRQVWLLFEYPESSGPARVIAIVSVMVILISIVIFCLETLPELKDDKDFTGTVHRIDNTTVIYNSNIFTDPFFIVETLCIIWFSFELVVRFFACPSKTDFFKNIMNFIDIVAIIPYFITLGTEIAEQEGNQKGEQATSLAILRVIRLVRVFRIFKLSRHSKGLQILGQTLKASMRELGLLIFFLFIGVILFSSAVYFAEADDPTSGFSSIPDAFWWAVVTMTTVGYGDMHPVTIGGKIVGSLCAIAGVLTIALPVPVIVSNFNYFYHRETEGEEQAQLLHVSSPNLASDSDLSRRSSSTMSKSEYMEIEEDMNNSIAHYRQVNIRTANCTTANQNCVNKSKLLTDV
T3 sequence (Q09470 whole entry E283Q/T286M): as the sequence (Q09470 whole entry E350D/E351D/A352P/E353T/H355G/S369T/Y379H) above, with E283Q, T286M, D350E, D351E, P352A, T353E, G355H, T369S, H379Y counted along it
T2 sequence (P22001 whole entry D422E/D423E/P424A/T425E/G427H/T441S/H451Y): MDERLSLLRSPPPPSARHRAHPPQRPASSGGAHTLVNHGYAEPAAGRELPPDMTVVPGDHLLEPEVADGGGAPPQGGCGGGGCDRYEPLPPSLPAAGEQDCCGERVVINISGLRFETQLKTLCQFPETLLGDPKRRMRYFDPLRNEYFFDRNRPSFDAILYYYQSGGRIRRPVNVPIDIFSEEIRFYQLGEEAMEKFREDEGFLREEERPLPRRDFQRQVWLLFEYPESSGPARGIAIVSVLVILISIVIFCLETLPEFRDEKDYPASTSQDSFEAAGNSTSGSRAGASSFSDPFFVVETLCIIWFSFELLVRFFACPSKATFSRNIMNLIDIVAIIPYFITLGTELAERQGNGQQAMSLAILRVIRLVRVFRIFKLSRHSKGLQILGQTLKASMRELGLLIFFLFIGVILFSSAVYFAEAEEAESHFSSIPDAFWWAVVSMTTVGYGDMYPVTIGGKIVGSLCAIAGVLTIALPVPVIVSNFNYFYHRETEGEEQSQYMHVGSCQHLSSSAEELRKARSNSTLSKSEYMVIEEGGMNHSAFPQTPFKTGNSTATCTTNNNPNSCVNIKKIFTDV

With CC[C@H](C)[C@@H]1NC(=O)[C@H](Cc2ccc(O)cc2)NC(=O)[C@H](CCC(N)=O)NC(=O)[C@@H]2CCCN2C(=O)[C@@H]2CSSC[C@H](NC(=O)[C@H](C)NC(=O)[C@H](CO)NC(=O)[C@H](CCC(=O)O)NC(=O)[C@H](CCC(=O)O)NC(=O)[C@@H](N)[C@@H](C)O)C(=O)NCC(=O)NCC(=O)N[C@@H](Cc3ccccc3)C(=O)N[C@@H](CC(N)=O)C(=O)N[C@@H](C)C(=O)N[C@@H](CCCNC(=N)N)C(=O)N[C@H]3CSSC[C@H](NC1=O)C(=O)N[C@@H](CCCCN)C(=O)NCC(=O)N[C@@H](Cc1c[nH]c4ccccc14)C(=O)N[C@@H](CCCNC(=N)N)C(=O)N[C@@H]([C@@H](C)O)C(=O)N[C@@H](CCCCN)C(=O)N[C@@H](CCCNC(=N)N)C(=O)N[C@H](C(=O)N[C@@H](CC(C)C)C(=O)N[C@@H](CC(N)=O)C(=O)N1CCC[C@H]1C(=O)O)CSSC[C@H](NC(=O)[C@H](CCCCN)NC(=O)[C@H](Cc1c[nH]cn1)NC(=O)[C@H](CC(C)C)NC(=O)[C@@H]1CCCN1C3=O)C(=O)N2 [MrVIII] (H-TEESACGGFNARCPLHKCCPQYICKGWRTKRCLNP-OH; disulfide 6-19, 13-24, 18-32; N-terminus and C-terminus assumed) the IC50 ([1]; current at 50 ms, n = 4-5) was 48.9 ± 26.6 nM, the “inhi%(495 ms), Kv1.1/1.3 S5-S6 current” value ([1]; current at 495 ms) was 50.1 ± 19.9% and the IC50 [2] was 3 ± 0.9 nM. The IC50 [3] was 7.7 ± 5.3 nM.
